Earlier results on 10 molecules are cited in article PMC8583718, “Transient Fluorescence Labeling: Low Affinity—High Benefits” (International Journal of Molecular Sciences, 2021).

Several values for one entry are separate records, joined by “and”; a condition that tells them apart may be missing. Equal entries are not always repeated. Where two headings read alike, the source gives them in different places.

Data set [1] has as its target dimeric transcription factors LmrR and RamR. Also noted: method as in PMID 33913682. The note with it: modified LmrR and RamR.
Data set [2] concerns the target mFAP1. Also noted: method as in PMID 30209393. The note with it: mFAP1 with DFHBI; read-out: dissociation constant.
Data set [3] deals with mFAP2. More on the design: method as in PMID 30209393. The note with it: mFAP2 with DFHBI; read-out: dissociation constant.
Data set [4] relates to Y-FAST. More on the design: method as in PMID 26711992.
The target in data set [5] is DNA. Also noted: method as in PMID 26423723. The note with it: staining of DNA.
Data set [6] addresses UnaG. More on the design: method as in PMID 23768684. The note with it: bilirubin–UnaG.
The test system of data set [7] is actin structures. Also noted: method as in PMID 26317264. The note with it: compared among actin tags.
For data set [8], the system named is G-actin. More on the design: method as in PMID 18536722. The note with it: G-actin compared with F-actin.
Data set [9] deals with F-actin. More on the design: method as in PMID 18536722.
The target of data set [10] is protein–fluorogen complexes. The note with it: UnaG system.
Data set [11] addresses F-actin. Also noted: method as in PMID 15826935. The note with it: binding to F-actin.
Data set [12] addresses microtubules. More on the design: method as in PMID 29662074. The note with it: interaction with microtubules.
For data set [13], the target named is microtubules. More on the design: method as in PMID 12773533. The note with it: interaction with microtubules.

With `CC1=N/C(=C\c2cc(F)c(O)c(F)c2)C(=O)N1C` [DFHBI, 3,5-difluoro-4-hydroxybenzylidene imidazolinone], in data set [1], the Dissociation constants result is “submicromoles to several micromoles”. The Kd in [2] was 180 nM; in [3], 560 nM.
On to `Cc1cc(C=C2SC(=S)NC2=O)ccc1O` [HMBR, 4-hydroxy-3-methylbenzylidene rhodanine], for which, in data set [4] (25 °C, HMBR–Y-FAST), the “residence time in the complex” value is reported as 160 ms. Moreover, the Kd in [4] (HMBR in complex with Y-FAST) was around 130 nM.
Take `CN1CCN(c2ccc3nc(-c4ccc5nc(-c6ccc(OCCCCNC(=O)c7ccc(C(=O)[O-])c(C8=C9C=CC(=[N+](C)C)C=C9[Si](C)(C)c9cc(N(C)C)ccc98)c7)cc6)[nH]c5c4)[nH]c3c2)CC1` [SiR-Hoechst]: the Kd in [5] was 8400 nM.
Consider `C=CC1=C(C)/C(=C/c2[nH]c(Cc3[nH]c(/C=C4\NC(=O)C(C)=C4C=C)c(C)c3CCC(=O)O)c(CCC(=O)O)c2C)NC1=O` [bilirubin], for which the Kd in data set [6] is 0.098 nM.
As to “F-tractin: residues 10–52 of rat inositol 1,4,5-triphosphate-3-kinase A (MARPRGAGPCSPGLERAPRRSVGELRLLFEARCAAVAAAAAAG; UniProt P17105 10-52, looked up, fragment)”, the exchange rate result in [7] is “highest exchange rate among all actin tags”.
Turning to “Lifeact: short (17 amino acids) fragment of actin filament-binding protein Abp140 from Saccharomyces cerevisiae”, in [8], the “higher affinity to G-actin” value is 10 fold. Moreover, the Kd in data set [9] (affinity to F-actin) was ~2200 nM and 2200 nM. Moreover, in data set [9] (on F-actin), the exchange of probes is recorded as at most 0.4 s.

B1: UnaG: fluorogen-activating protein from Japanese eel muscle that reversibly binds bilirubin (protein, UniProt P0DM59 1-139, looked up)
Bilirubin-inducible …: MVEKFVGTWKIADSHNFGEYLKAIGAPKELSDGGDATTPTLYISQKDGDKMTVKIENGPPTFLDTQVKFKLGEEFDEFPSDRRKGVKSVVNLVGEKLVYVQKWDGKETTYVREIKDGKLVVTLTMGDVVAVRSYRRATE
Take B1: the Kd in data set [10] is 0.098 nM.

B2: Utr261: first 261 amino acid residues of utrophin, the filament-crosslinking protein (protein, UniProt P46939 1-261, looked up, fragment)
chain: MAKYGEHEASPDNGQNEFSDIIKSRSDEHNDVQKKTFTKWINARFSKSGKPPINDMFTDLKDGRKLLDLLEGLTGTSLPKERGSTRVHALNNVNRVLQVLHQNNVELVNIGGTDIVDGNHKLTLGLLWSIILHWQVKDVMKDVMSDLQQTNSEKILLSWVRQTTRPYSQVNVLNFTTSWTDGLAFNAVLHRHKPDLFSWDKVVKMSPIERLEHAFSKAQTYLGIEKLLDPEDVAVQLPDKKSIIMYLTSLFEVLPQQVTID
For the molecule B2, the Kd in data set [11] is 18600 nM.

B3: MAP7: microtubule-associated protein (protein, UniProt Q14244 2-749, looked up)
Ensconsin: AELGAGGDGHRGGDGAVRSETAPDSYKVQDKKNASSRPASAISGQNNNHSGNKPDPPPVLRVDDRQRLARERREEREKQLAAREIVWLEREERARQHYEKHLEERKKRLEEQRQKEERRRAAVEEKRRQRLEEDKERHEAVVRRTMERSQKPKQKHNRWSWGGSLHGSPSIHSADPDRRSVSTMNLSKYVDPVISKRLSSSSATLLNSPDRARRLQLSPWESSVVNRLLTPTHSFLARSKSTAALSGEAASCSPIIMPYKAAHSRNSMDRPKLFVTPPEGSSRRRIIHGTASYKKERERENVLFLTSGTRRAVSPSNPKARQPARSRLWLPSKSLPHLPGTPRPTSSLPPGSVKAAPAQVRPPSPGNIRPVKREVKVEPEKKDPEKEPQKVANEPSLKGRAPLVKVEEATVEERTPAEPEVGPAAPAMAPAPASAPAPASAPAPAPVPTPAMVSAPSSTVNASASVKTSAGTTDPEEATRLLAEKRRLAREQREKEERERREQEELERQKREELAQRVAEERTTRREEESRRLEAEQAREKEEQLQRQAEERALREREEAERAQRQKEEEARVREEAERVRQEREKHFQREEQERLERKKRLEEIMKRTRRTEATDKKTSDQRNGDIAKGALTGGTEVSALPCTTNAPGNGKPVGSPHVVTSHQSKVTVESTPDLEKQPNENGVSVQNENFEEIINLPIGSKPSRLDVTNSESPEIPLNPILAFDDEGTLGPLPQVDGVQTQQTAEVI
Consider B3, for which the Kd in data set [12] is around 470 nM.

B4: MAP4: microtubule-associated protein (protein, UniProt P27816 2-1152, looked up)
Microtubule-associated …: ADLSLADALTEPSPDIEGEIKRDFIATLEAEAFDDVVGETVGKTDYIPLLDVDEKTGNSESKKKPCSETSQIEDTPSSKPTLLANGGHGVEGSDTTGSPTEFLEEKMAYQEYPNSQNWPEDTNFCFQPEQVVDPIQTDPFKMYHDDDLADLVFPSSATADTSIFAGQNDPLKDSYGMSPCNTAVVPQGWSVEALNSPHSESFVSPEAVAEPPQPTAVPLELAKEIEMASEERPPAQALEIMMGLKTTDMAPSKETEMALAKDMALATKTEVALAKDMESPTKLDVTLAKDMQPSMESDMALVKDMELPTEKEVALVKDVRWPTETDVSSAKNVVLPTETEVAPAKDVTLLKETERASPIKMDLAPSKDMGPPKENKKETERASPIKMDLAPSKDMGPPKENKIVPAKDLVLLSEIEVAQANDIISSTEISSAEKVALSSETEVALARDMTLPPETNVILTKDKALPLEAEVAPVKDMAQLPETEIAPAKDVAPSTVKEVGLLKDMSPLSETEMALGKDVTPPPETEVVLIKNVCLPPEMEVALTEDQVPALKTEAPLAKDGVLTLANNVTPAKDVPPLSETEATPVPIKDMEIAQTQKGISEDSHLESLQDVGQSAAPTFMISPETVTGTGKKCSLPAEEDSVLEKLGERKPCNSQPSELSSETSGIARPEEGRPVVSGTGNDITTPPNKELPPSPEKKTKPLATTQPAKTSTSKAKTQPTSLPKQPAPTTIGGLNKKPMSLASGLVPAAPPKRPAVASARPSILPSKDVKPKPIADAKAPEKRASPSKPASAPASRSGSKSTQTVAKTTTAAAVASTGPSSRSPSTLLPKKPTAIKTEGKPAEVKKMTAKSVPADLSRPKSTSTSSMKKTTTLSGTAPAAGVVPSRVKATPMPSRPSTTPFIDKKPTSAKPSSTTPRLSRLATNTSAPDLKNVRSKVGSTENIKHQPGGGRAKVEKKTEAAATTRKPESNAVTKTAGPIASAQKQPAGKVQIVSKKVSYSHIQSKCGSKDNIKHVPGGGNVQIQNKKVDISKVSSKCGSKANIKHKPGGGDVKIESQKLNFKEKAQAKVGSLDNVGHLPAGGAVKTEGGGSEAPLCPGPPAGEEPAISEAAPEAGAPTSASGLNGHPTLSGGGDQREAQTLDSQIQETSI
In the case of B4, the Kd in data set [13] was around 300 nM.
